# Assay results published in patent US20130310347A1, “MULTI-MODALITY MOLECULAR IMAGING HIGH-THROUGHPUT ASSAY FOR IDENTIFYING HEAT SHOCK PROTEIN 90 (HSP90) INHIBITORS” (The Board of Trustees of the Leland Stanford Junior …, priority 2012, published 2013).
# Experiments:
# [1] = tested on: Hsp90(α/β)/p23 interactions; assay: BLI of lead compounds in intact 293T cells with split RL reporters; type: cell-based, human
# Protocol: Bioluminescence signals were quantified and normalized for cell number and that of carrier control treated cells (right). Results were expressed as mean±S.E.M.
# To determine the effect of lead compounds on disruption of Hsp90(α/β)/p23 interactions in intact cells, 3.5×10^4 293T cells stably transfected with split RL reporters as described in Chan et al., (2008) Cancer Res. 68: 216-226, were plated in each well in the 96-well black wall plate (Costar, Corning, N.Y.) and allowed to attach for 24 h, prior to treatment with different concentrations of the lead compounds for 24 h. The 10 μg/ml of ENDUREN® (in […] of cell culture medium) was added to each well for 1.5 h and RL activities were determined. BLI signals were normalized to that of cell number for each well (determined by Alamar Blue assay (Invitrogen, Carlsbad, Calif.)), prior to normalization to carrier control-treated cells.
# purified Hsp90α = purified Hsp90α (Homo sapiens, UniProt P07900); assay: In vitro competitive binding with 3H-17AAG; conditions: CP9 200 μM pre-incubation; p<0.05
# Protocol: (§1) FIG. 5C is a graph illustrating the competitive in vitro binding of CP9 with ^3H-17AAG to Hsp90(α/β). Purified Hsp90(α/β) was pre-incubated with CP9 (200 μM) or cold 17-AAG (50 μM) prior to incubation with ^3H-17AAG. The reaction complexes were then eluted through a desalting column to remove any unbound ^3H-17AAG prior to scintillation counting for the amount of ^3H-17AAG bound to Hsp90(α/β). Columns incubated with ^3H-17AAG alone served as negative controls. Results are expressed as means of triplicates±S.E.M. *, p<5×10^−6 vs. carrier control-treated cells.
# (§2) To confirm the direct binding of CP9 to Hsp90(α/β), an in vitro competitive binding assay using purified Hsp90α and Hsp90β was performed using radiolabeled Hsp90 inhibitor ^3H-17AAG. Hsp90 proteins were pre-bound with CP9 or cold 17-AAG as a control prior to incubation with ^3H-17AAG. Unbound ^3H-17AAG was removed and the amount of ^3H-17AAG bound to the Hsp90 proteins was determined. […] To confirm cellular Hsp90 as the target of CP9, uptake studies in intact HT29 cells were performed by monitoring the competitive binding of ^3H-17AAG. […]
# (§3) To verify the binding of CP9 to Hsp90α and Hsp90β in vitro, a displacement assay using ^3H-17AAG was performed. […] The amount of ^3H-17AAG that remained bound to Hsp90α or Hsp9013 was determined by scintillation counting.
# purified Hsp90β = purified Hsp90β (Homo sapiens, UniProt P08238); assay: In vitro competitive binding with 3H-17AAG; conditions: CP9 200 μM pre-incubation
# Protocol: as §1, §2, §3
# normal MEF cells = assay: 3H-FDG cell uptake (glucose metabolism); type: cell-based, mouse; conditions: 24 h post treatment
# Protocol: FIG. 6B is a graph illustrating the effect of CP9 on glucose metabolism determined in 1975 lung cancer, 2008 ovarian cancer and HT29 colon cancer cells by ^3H-FDG cell uptake studies 24 h post treatment. Normal MEFs were used as a control. Results were expressed as mean counts/μg protein/initial dose±S.E.M. *, p<0.05 vs. carrier control treated cells.
# To determine the specificity of CP9 in inhibition of glucose metabolism, normal MEF cells were used as a control.
# To determine the downstream effects of lead compounds on glucose metabolism, 1.5×10^5 293T, 1975 and 2008 and MEFs cells plated in 24-well plate for 24 h, prior to treatment with different concentrations of CP9 for 24 or 48 h and subsequent incubation with 1 μCi of ^3H-FDG in 500 μl of medium for 1 h at 37° C. Cells treated with 2.5 μM of PU-H71 served as a positive control. The total counts in each sample were normalized to that of the dose added to each well and to the amount of protein, and expressed as mean counts/dose/μg protein±S.E.M. Likewise, the effect of CP9 on cell proliferation was determined using 1 μCi of ^3H-FLT per well after 2 h of incubation at 37° C.
# [2] = logP value (partition coefficient); type: physicochemical
# purified Hsp90β, sequence (P08238 whole entry): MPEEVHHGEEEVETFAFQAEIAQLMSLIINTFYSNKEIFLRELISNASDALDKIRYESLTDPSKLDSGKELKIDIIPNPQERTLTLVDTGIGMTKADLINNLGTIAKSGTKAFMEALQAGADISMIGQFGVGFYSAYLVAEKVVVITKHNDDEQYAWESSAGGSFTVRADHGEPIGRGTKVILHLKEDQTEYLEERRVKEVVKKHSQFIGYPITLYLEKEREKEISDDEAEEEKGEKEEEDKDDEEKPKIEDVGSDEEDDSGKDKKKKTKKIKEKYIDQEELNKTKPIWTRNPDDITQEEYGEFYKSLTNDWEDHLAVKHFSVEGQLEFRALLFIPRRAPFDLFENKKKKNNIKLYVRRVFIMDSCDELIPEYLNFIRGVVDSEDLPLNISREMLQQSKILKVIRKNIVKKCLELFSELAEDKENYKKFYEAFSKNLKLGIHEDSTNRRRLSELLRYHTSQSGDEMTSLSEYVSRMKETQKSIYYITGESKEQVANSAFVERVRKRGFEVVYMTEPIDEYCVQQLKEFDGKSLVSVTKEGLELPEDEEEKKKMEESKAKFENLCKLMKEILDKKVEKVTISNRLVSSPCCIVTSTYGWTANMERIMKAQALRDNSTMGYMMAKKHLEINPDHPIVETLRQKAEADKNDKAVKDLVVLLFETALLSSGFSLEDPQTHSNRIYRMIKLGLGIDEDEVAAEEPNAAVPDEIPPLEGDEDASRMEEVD
structure (smiles),measurement,setting,value
"Cc1cc(NC(=O)CSc2nc(-c3cccs3)cc(C(F)(F)F)n2)no1 [CP9, N-(5-methylisoxazol-3-yl)-2-(4-(thiophen-2-yl)-6-(trifluoromethyl)pyrimidin-2-ylthio)acetamide]",selectivity for Hsp90α/p23 BLI signals relative to Hsp90β/p23 interactions,[1]; 293T cells,more selective for inhibition of Hsp90α/p23 BLI signals
same,bioluminescence signals in 293T cells expressing Hsp90α/p23 and Hsp90β/p23 split RL reporters,"[1]; 24 h, normalized for cell number and carrier control",dose-dependent decrease
same,reduction of binding of 3H-17AAG to purified Hsp90α,purified Hsp90α,about 50%
same,binding of 3H-17AAG to Hsp90β,purified Hsp90β,did not significantly affect
same,3H-FDG uptake in MEFs,normal MEF cells,without significantly affecting
same,logP,[2],4.1
